Read-outs that look alike come from different tables or passages of the source. Square brackets hold non-standard residues; d marks the D form. Peptide text beside a SMILES is read from it. * marks the point of attachment. Propanoyl(3-(3-pyridyl)) = O=C(CCc1cccnc1)*; Arg(Me) = CNC(=N)NCCC[C@H](N)C(=O)O; d4Pal = N[C@H](Cc1ccncc1)C(=O)O; azaGly = NNC(=O)O

Assay [1] relates to hOT7T175-expressed CHO cells. The assay is classed as cell-based. As for the experimental part: Assay for Cell Growth Inhibition Activity in hOT7T175-Expressed Cho Cells hOT7T175-Expressed CHO cells (hereinafter hOT7T175) were cultured in DMEM supplemented with 10% dialyzed FBS (hereinafter 10% dFBS/DMEM), which was used for the following assay. The hOT7T175 was suspended in 10% dFBS/DMEM at 10,000 cells/ml. The cells were plated on a 96 well plate at 100 μL each/well (1,000 cells/well), followed by culturing overnight at 37° C. in a 5% CO2 incubator. On the following day, the medium was removed and 90 μL of 10% dFBS/DMEM supplemented with 0.5% BSA (hereinafter, 0.5% BSA/10% dFBS/DMEM) was added. […] After 10 μL of Cell Counting Kit-8 solution (Dojin Chemical Laboratory) was added to each well, incubation was performed at 37° C. in a 5% CO2 incubator for 4 hours and absorbance was measured at 450 nm.

Assay [2] has as its system human colonic carcinoma-derived cell line SW620. The assay can be described thus: Tumor growth inhibition activity in tumor-bearing mice with SW620. The assay is classed as in vivo. Particulars: for tumor growth inhibition (tumor size) compared to the vehicle group: SW620 tumor-bearing BALB/cAnN-nu mice, s.c. osmotic pump. As to the method: The abscissa denotes the number of days after injection. The bar on the abscissa designates a dosing period. The ordinate denotes a tumor size (mm^3).
Evaluation of Tumor Growth Inhibition Activity
On the following day, human colonic carcinoma-derived cell line SW620 (ATCC) was dissolved in 20 mM phosphate buffered saline (pH 7.2)(PBS) containing 200 μL of 0.15M NaCl at a density of 2×10^6 cells. The resulting solution was subcutaneously injected into the left flank of the mice above. The day when the cells were injected was made Day 0. Tumor was measured with an electronic caliper every other or 2 other days during Days 4 to 13 from the cell administration, and tumor size was calculated by the following equation: […].

Assay [3] concerns the target T1, hOT7T175 (Homo sapiens, UniProt Q969F8, L364H). The assay can be described thus: Intracellular Ca ion level-increasing activity using FLIPR in hOT7T175/CHO. The assay is classed as cell-based. More on the design: expressed in transfected cells; host or cells: CHO/dhfr- cells, obtained from ATCC. To be noted: relative, Metastin (1-54) = 1.
The target in assay [4] is T1, hOT7T175. Description: hOT7T175 receptor binding activity: binding inhibition of Cy-5-labeled metastin (40-54) on hOT7T175-expressed CHO cells. The arrangement: expressed in transfected cells; host or cells: CHO cells.

T1 sequence (Q969F8 whole entry L364H): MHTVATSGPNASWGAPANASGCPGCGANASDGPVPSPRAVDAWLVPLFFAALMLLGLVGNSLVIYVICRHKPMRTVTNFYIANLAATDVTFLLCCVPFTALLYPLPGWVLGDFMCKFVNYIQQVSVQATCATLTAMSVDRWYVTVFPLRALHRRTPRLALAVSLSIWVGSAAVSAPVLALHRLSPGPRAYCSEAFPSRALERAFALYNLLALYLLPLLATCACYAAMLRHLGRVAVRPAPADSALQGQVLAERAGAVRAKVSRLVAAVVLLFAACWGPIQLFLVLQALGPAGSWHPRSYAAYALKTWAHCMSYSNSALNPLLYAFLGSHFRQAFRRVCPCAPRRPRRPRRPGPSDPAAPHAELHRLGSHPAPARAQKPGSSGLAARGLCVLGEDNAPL

Broadly, the IC50 is the concentration needed to halve the response being measured. On to `CNC(=N)NCCC[C@H](NC(=O)[C@H](CC(C)C)NC(=O)NNC(=O)[C@H](Cc1ccccc1)NC(=O)[C@H](CO)NC(=O)[C@H](CC(N)=O)NC(=O)[C@@H](Cc1ccncc1)NC(=O)[C@H](N)Cc1ccc(O)cc1)C(=O)N[C@@H](Cc1ccccc1)C(N)=O` [Compound No. 305, D-Tyr-D-Pya(4)-Asn-Ser-Phe-AzaGly-Leu-Arg(Me)-Phe-NH2] (H-[dY][d4Pal]NSF[azaGly]L[Arg(Me)]F-NH2), for which the IC50 in assay [1] (hOT7T175-expressed CHO cells, 3 days culture, Cell Counting Kit-8, read-out: IC50 (M), cell growth inhibition activity) was 8.94e-09 M. The “tumor growth inhibition (tumor size) compared to the vehicle group” value in assay [2] (2.4 nmol/day/mouse×14 days) was “significant tumor growth inhibition activity from Days 5 to 11”; in assay [2] (24 nmol/day/mouse×14 days) it was “significant effect of tumor growth inhibition from Days 5 to 9 and on Day 11”. Further, in assay [2] (SW620 tumor-bearing mice, in vivo), the “effect of tumor growth inhibition relative to Metastin” value came to 10 times. Moreover, at hOT7T175 [3], the “Specific Activity (intracellular Ca ion level-increasing activity)” value is given as 5.
With `CNC(=N)NCCC[C@H](NC(=O)[C@H](CC(C)C)NC(=O)NNC(=O)[C@H](Cc1ccccc1)NC(=O)[C@H](CO)NC(=O)[C@H](CC(N)=O)NC(=O)CCc1cccnc1)C(=O)N[C@@H](Cc1ccccc1)C(N)=O` [Compound No. 322, 3-Pyridylpropionyl-Asn-Ser-Phe-AzaGly-Leu-Arg(Me)-Phe-NH2] ({Propanoyl(3-(3-pyridyl))}-NSF[azaGly]L[Arg(Me)]F-NH2), the IC50 in assay [1] was 7.19e-08 M; at hOT7T175 [4] it was 54 nM. Besides, in assay [2] (24 nmol/day/mouse×14 days, Day 11), the “tumor growth inhibition compared with the Metastin group” value is listed as “significant tumor growth inhibition activity even when compared with the Metastin group”. For the same molecule, the figures for the “tumor growth inhibition (tumor size) compared to the vehicle group” value in assay [2] (2.4 nmol/day/mouse×14 days) and in assay [2] (24 nmol/day/mouse×14 days) were “significant tumor growth inhibition activity in a 1/10 dose (2.4 nmol/day/mouse×14 days) of Metastin from Days 6 to 8” and “significant tumor growth inhibition activity from Days 6 to 11”, respectively. The “Specific Activity (intracellular Ca ion level-increasing activity)” value on hOT7T175 [3] was 1.

The values are drawn from US8361968B2 (Takeda Pharmaceutical Company Limited, priority 2002, dated 2013).
